Laboratory results from patent publication US6838445B1, “Tumor antigen peptide originating in SART-1” (Kyogo Itoh, priority 1998, dated 2005).
Where no end group is shown, it is not given here.

Columns and labels:
[1] = system: KE-4CTL reacting with HLA-A2402-expressing VA-13 cells; assay: IFN-γ production by KE-4CTL against peptide-pulsed HLA-A2402-expressing VA-13 cells (ELISA); assay type: cell-based, human; settings: peptide 10 μM for 2 hours on HLA-A2402-expressing VA-13 cells, 18 hours culture with 2×10^4 KE-4CTLs
Protocol: Concretely, when peripheral blood lymphocytes are isolated from HLA-A24 antigen-positive human and candidate peptides are added thereto to stimulate in vitro, it can be evaluated by determining whether or not CTLs that specifically recognize the candidate peptide-pulsed HLA-A24-positive cells are induced. Here, the presence or absence of the induction of the CTLs can be examined, for instance, by assaying an amount of various cytokines (for instance, IFN-γ) produced by CTLs in reaction with the antigen peptide presenting cells by means of enzyme-linked immunosorbent assay (ELISA) or the like. As the antigen peptide presenting cells (target cells) during the assay, there are included, for instance, esophageal cancer cell line KE-4 (FERM BP-5955). In addition, the induction can be examined by the method for assaying CTL toxicity on ^51Cr-labeled antigen peptide presenting cells (^51Cr-release assay, Int. J. Cancer, 58:317, 1994). Further, the induction can be examined by pulsing with candidate peptides to cells resulting from introduction of an expression plasmid into, for instance, COS-7 cells (ATCC No. CRL1651) and VA-13 cells (RIKEN CELL BANK), the expression plasmid for expressing HLA-A24 cDNA [Cancer Res., 55:4248-4252 (1995); Genbank Accession No. M64740]; reacting KE-4CTL (FERM BP-5954), or CTLs prepared in the manner described above, or the like with the resulting cells; and assaying an amount of various cytokines (for instance, IFN-γ) that are produced by CTLs.
HLA-A2402 cDNA (listed in Genbank Accession No. M64740) was obtained from KE-4 in accordance with the description in the publication (Cancer Res., 55:4248, 1995), and a recombinant plasmid was prepared by incorporating the resulting product into an expression vector pCR3 (manufactured by INVITROGEN). This plasmid was transfected to 10^4 cells of VA-13 cells (available from RIKEN CELL BANK; Ann. Med Exp. Biol. Fenn., 44:242, 1966) by lipofectin method in accordance with the publication (J. Exp. Med., 187:277, 1998), to thereby express HLA-A2402. Each of the peptides “725-733,” “740-750,” “746-755,” “746-756” and “758-766*” among those listed in Example 1 was added at 10 μM in 2 hours, and thereafter the mixture was cultured for 18 hours together with 2×10^4 of KE-4CTLs. An amount of IFN-γ produced by KE-4CTLs in the culture supernatant was assayed by ELISA method. […] Thereafter, the resulting product was developed by using Peroxidase Developing Kit T (manufactured by Sumitomo Bakelite Company, Limited), and thereafter its absorbance (405 nm) was determined. The resulting value was quantified by comparing it with the value obtained from standard IFN-γ. […]

[2] = system: HLA-A2402-positive KE-4 cells; assay: Induction of CTLs from peripheral blood lymphocytes by peptide; IFN-γ release against KE-4 target cells (ELISA); assay type: cell-based, human; settings: for induction of antigen peptide-specific CTLs from peripheral blood lymphocytes: conclusion from Table 1; for reactivity of peptide-stimulated peripheral blood lymphocytes against KE-4 compared with negative control QG56: from Table 1; for IFN-γ (pg/ml) in Supernatant: peripheral blood lymphocytes (HLA-A24 homo healthy donors) stimulated three times with 10 μM peptide, 8×10^4 effectors, target cells KE-4 (1×10^4)
Protocol: (§1) First, lymphocytes were isolated by Ficol method from peripheral blood of healthy donors whose HLA-A locus is A24 homo. The lymphocytes were aliquoted to a 24-well plate so as to be 2×10^6 cells/well, and cultured in a culture medium containing 45% RPMI 1640 medium, 45% AIM-V medium, 10% FCS and 100 U/ml IL-2. Each of the above-mentioned tumor antigen peptides was added to the culture medium so as to have a concentration of 10 μM, to stimulate the peripheral blood lymphocytes. One week later, the above-mentioned tumor antigen peptide was added thereto so as to have a concentration of 10 μM, together with about 2×10^5 of X-ray irradiated (50 Gy) peripheral blood lymphocytes, to carry out a second stimulation of the lymphocytes. After another week, a third stimulation was carried out by repeating the procedures in the same manner as above. After one week from the third stimulation, the cultured lymphocytes were collected. The amount of IFN-γ of the supernatant was assayed by ELISA, the supernatant being produced by reacting the above-mentioned lymphocytes (8×10^4) with HLA-A2402-positive KE-4 cells in which the tumor antigen protein was expressed and with HLA-A2402-negative QG56 cells in which the tumor antigen protein was expressed, respectively, as targeted cells (1×10^4).

[3] = system: HLA-A2402-negative QG56 cells; assay: Induction of CTLs from peripheral blood lymphocytes by peptide; IFN-γ release against QG56 target cells (ELISA); assay type: cell-based; settings: peripheral blood lymphocytes (HLA-A24 homo healthy donors) stimulated three times with 10 μM peptide, 8×10^4 effectors; target cells QG56 (1×10^4), negative control
Protocol: as §1

| Sequence | activity as HLA-A24-restricted tumor antigen peptide (amount of IFN-γ produced by KE-4CTLs, FIG. 1) [1] | induction of antigen peptide-specific CTLs from peripheral blood lymphocytes [2] | reactivity of peptide-stimulated peripheral blood lymphocytes against KE-4 compared with negative control QG56 [2] | IFN-γ (pg/ml) in Supernatant [2] | IFN-γ (pg/ml) in Supernatant [3] |
| --- | --- | --- | --- | --- | --- |
| AFRQLSHRF [725-733] | function as HLA-A24-restricted tumor antigen peptides | – | – | – | – |
| KMKTERRMKKL [740-750] | function as HLA-A24-restricted tumor antigen peptides | – | – | – | – |
| RMKKLDEEAL [746-755] | function as HLA-A24-restricted tumor antigen peptides | antigen peptide-specific CTLs were induced | stronger reactivities against KE-4 | 595.5 pg/mL | 281.4 pg/mL |
| RMKKLDEEALL [746-756] | function as HLA-A24-restricted tumor antigen peptides | antigen peptide-specific CTLs were induced | stronger reactivities against KE-4 | 701.5 pg/mL | 392.0 pg/mL |
